From PubChem BioAssay AID1845217 (Molecular Pharmacology Branch, DTP, NCI, 2023)

System: VA-ES-BJ tumor spheroid viability
Assay: Anticancer human tumor VA-ES-BJ cell line growth inhibition;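 also: spheroids exposed to compounds for seven days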;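 as to viability, T/C: percent of DMSO vehicle control viability so 100% = untreated growth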
Settings: spheroids with HUVEC and MSC; for IC50: curve of first compound; for viability, T/C: stronger effect = lower value
Procedure, shortened: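 Complex tumor spheroids combined malignant cells with endothelial cells and mesenchymal stem cells. DNA-damaging drugs and DNA repair inhibitors were tested alone and in combination, at half-log dilutions down from clinical Cmax (top 10 microM if Cmax unknown), 0.25% DMSO final.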

[1] = second compound 30 pM, first compound 0.0316 µM
[2] = second compound 30 pM, first compound 0.1 µM
[3] = second compound 30 pM, first compound 0.316 µM
[4] = second compound 30 pM, first compound 1 µM
[5] = second compound 30 pM, first compound 3.16 µM
[6] = second compound 30 pM, first compound 10 µM
[7] = second compound 94.9 pM, first compound 0.0316 µM
[8] = second compound 94.9 pM, first compound 0.1 µM
[9] = second compound 94.9 pM, first compound 0.316 µM
[10] = second compound 94.9 pM, first compound 1 µM
[11] = second compound 94.9 pM, first compound 3.16 µM
[12] = second compound 94.9 pM, first compound 10 µM
[13] = second compound 0.0003 µM, first compound 0.0316 µM
[14] = second compound 0.0003 µM, first compound 0.1 µM
[15] = second compound 0.0003 µM, first compound 0.316 µM
[16] = second compound 0.0003 µM, first compound 1 µM
[17] = second compound 0.0003 µM, first compound 3.16 µM
[18] = second compound 0.0003 µM, first compound 10 µM
[19] = second compound 0.000949 µM, first compound 0.0316 µM
[20] = second compound 0.000949 µM, first compound 0.1 µM
[21] = second compound 0.000949 µM, first compound 0.316 µM
[22] = second compound 0.000949 µM, first compound 1 µM
[23] = second compound 0.000949 µM, first compound 3.16 µM
[24] = second compound 0.000949 µM, first compound 10 µM
[25] = second compound 0.003 µM, first compound 0.0316 µM
[26] = second compound 0.003 µM, first compound 0.1 µM
[27] = second compound 0.003 µM, first compound 0.316 µM
[28] = second compound 0.003 µM, first compound 1 µM
[29] = second compound 0.003 µM, first compound 3.16 µM
[30] = second compound 0.003 µM, first compound 10 µM

SMILES | IC50 (second compound 30 pM) | IC50 (second compound 94.9 pM) | IC50 (second compound 0.0003 µM) | IC50 (second compound 0.000949 µM) | IC50 (second compound 0.003 µM) | viability, T/C [1] | viability, T/C [2] | viability, T/C [3] | viability, T/C [4] | viability, T/C [5] | viability, T/C [6] | viability, T/C [7] | viability, T/C [8] | viability, T/C [9] | viability, T/C [10] | viability, T/C [11] | viability, T/C [12] | viability, T/C [13] | viability, T/C [14] | viability, T/C [15] | further results
CC(C)n1c(=O)n(C)c2cnc3cc(F)c(-c4ccc(OCCCN5CCCCC5)nc4)cc3c21 + COc1cc2c(cc1O)CCNC21CSC2c3c(OC(C)=O)c(C)c4c(c3C(COC1=O)N1C(O)C3Cc5cc(C)c(OC)c(O)c5C(C21)N3C)OCO4 | 5850 nM | < 31.6 nM | < 31.6 nM | < 31.6 nM | < 31.6 nM | 76.2% | 76.6% | 75.2% | 81% | 79.1% | 26% | 50.3% | 45.4% | 46.6% | 54.1% | 47.8% | 28.6% | 25.9% | 25.1% | 30.5% | viability, T/C [16]: 31.5%; viability, T/C [17]: 19.7%; viability, T/C [18]: 13.2%; viability, T/C [19]: 1.74%; viability, T/C [20]: 1.58%; viability, T/C [21]: 1.8%; viability, T/C [22]: 1.79%; viability, T/C [23]: 1.02%; viability, T/C [24]: 1.02%; viability, T/C [25]: 1.5%; viability, T/C [26]: 1.42%; viability, T/C [27]: 1.59%; viability, T/C [28]: 0.72%; viability, T/C [29]: 0.45%; viability, T/C [30]: 0.56%
CC1COCCN1c1cc(-c2ccnn2C)c2ccnc(-c3ccn[nH]3)c2n1 (stereo not given) + COc1cc2c(cc1O)CCNC21CSC2c3c(OC(C)=O)c(C)c4c(c3C(COC1=O)N1C(O)C3Cc5cc(C)c(OC)c(O)c5C(C21)N3C)OCO4 | < 31.6 nM | < 31.6 nM | < 31.6 nM | < 31.6 nM | < 31.6 nM | 38% | 19.5% | 8.68% | 5.69% | 4.98% | 4.49% | 26% | 21.3% | 8.87% | 4.99% | 5.01% | 4.7% | 16.9% | 12% | 8.21% | viability, T/C [16]: 5.23%; viability, T/C [17]: 5.32%; viability, T/C [18]: 5.04%; viability, T/C [19]: 2.61%; viability, T/C [20]: 2.73%; viability, T/C [21]: 2.01%; viability, T/C [22]: 1.53%; viability, T/C [23]: 0.5%; viability, T/C [24]: 0.13%; viability, T/C [25]: 1.26%; viability, T/C [26]: 1.04%; viability, T/C [27]: 0.77%; viability, T/C [28]: 1%; viability, T/C [29]: 0.35%; viability, T/C [30]: 0.56%
COc1cc(C)[nH]c(=O)c1CN1CCc2c(Cl)cc(C(OC)C3COC3)c(Cl)c2C1=O (stereo not given) + COc1cc2c(cc1O)CCNC21CSC2c3c(OC(C)=O)c(C)c4c(c3C(COC1=O)N1C(O)C3Cc5cc(C)c(OC)c(O)c5C(C21)N3C)OCO4 | 933 nM | 981 nM | < 31.6 nM | < 31.6 nM | < 31.6 nM | 75.7% | 71.1% | 58.6% | 49.4% | 45.2% | 40.9% | 66.9% | 68.6% | 59.3% | 49% | 43.1% | 36.8% | 38.5% | 36.2% | 33.1% | viability, T/C [16]: 36.7%; viability, T/C [17]: 27.2%; viability, T/C [18]: 29.4%; viability, T/C [19]: 2.44%; viability, T/C [20]: 2.53%; viability, T/C [21]: 2.69%; viability, T/C [22]: 2.75%; viability, T/C [23]: 2.25%; viability, T/C [24]: 1.84%; viability, T/C [25]: 1.25%; viability, T/C [26]: 1.11%; viability, T/C [27]: 1.37%; viability, T/C [28]: 1.01%; viability, T/C [29]: 1.1%; viability, T/C [30]: 2%
COc1ccc([C@@H](O)c2cc(-c3ncnc4cc(N5CCOCC5)ccc34)c(F)cc2Cl)nn1 + COc1cc2c(cc1O)CCNC21CSC2c3c(OC(C)=O)c(C)c4c(c3C(COC1=O)N1C(O)C3Cc5cc(C)c(OC)c(O)c5C(C21)N3C)OCO4 | 857 nM | 510 nM | 102 nM | < 31.6 nM | < 31.6 nM | 124% | 112% | 90.3% | 43.8% | 15.9% | 10.5% | 111% | 108% | 64.1% | 29.1% | 15% | 11.4% | 59.6% | 51.3% | 30.5% | viability, T/C [16]: 14%; viability, T/C [17]: 3.86%; viability, T/C [18]: 0.36%; viability, T/C [19]: 3.29%; viability, T/C [20]: 3.11%; viability, T/C [21]: 1.76%; viability, T/C [22]: 0.36%; viability, T/C [23]: 1.07%; viability, T/C [24]: 2.57%; viability, T/C [25]: 2.08%; viability, T/C [26]: 3.06%; viability, T/C [27]: 2.71%; viability, T/C [28]: 4.43%; viability, T/C [29]: 5.13%; viability, T/C [30]: 6.09%
Cc1cc(C)c(CNC(=O)c2cc(-c3ccc(CN4CCOCC4)cc3)cc3c2cnn3C2CCCC2)c(=O)[nH]1 + COc1cc2c(cc1O)CCNC21CSC2c3c(OC(C)=O)c(C)c4c(c3C(COC1=O)N1C(O)C3Cc5cc(C)c(OC)c(O)c5C(C21)N3C)OCO4 | > 10000 nM | > 10000 nM | < 31.6 nM | < 31.6 nM | < 31.6 nM | 103% | 105% | 109% | 104% | 101% | 96.4% | 97.6% | 101% | 96.8% | 95.2% | 88.7% | 82.6% | 48.5% | 48.4% | 47.7% | viability, T/C [16]: 42.4%; viability, T/C [17]: 38.6%; viability, T/C [18]: 32.6%; viability, T/C [19]: 2.91%; viability, T/C [20]: 3.27%; viability, T/C [21]: 3.08%; viability, T/C [22]: 2.61%; viability, T/C [23]: 2.08%; viability, T/C [24]: 1.68%; viability, T/C [25]: 0.95%; viability, T/C [26]: 1.8%; viability, T/C [27]: 1.23%; viability, T/C [28]: 1.96%; viability, T/C [29]: 1.92%; viability, T/C [30]: 1.57%
[2H]c1nc(C)nc([2H])c1-c1cc(NC[C@@H](C)c2cccc3c(C(=O)NC)ccnc23)ncn1 + COc1cc2c(cc1O)CCNC21CSC2c3c(OC(C)=O)c(C)c4c(c3C(COC1=O)N1C(O)C3Cc5cc(C)c(OC)c(O)c5C(C21)N3C)OCO4 | > 10000 nM | > 10000 nM | < 31.6 nM | < 31.6 nM | < 31.6 nM | 75.6% | 78.4% | 81.4% | 81.9% | 85.2% | 87.5% | 72.9% | 74% | 83.1% | 81% | 82.6% | 76.8% | 46.8% | 40.9% | 43.9% | viability, T/C [16]: 42.1%; viability, T/C [17]: 36%; viability, T/C [18]: 38.4%; viability, T/C [19]: 3.46%; viability, T/C [20]: 1.96%; viability, T/C [21]: 3.4%; viability, T/C [22]: 2.92%; viability, T/C [23]: 2.41%; viability, T/C [24]: 1.53%; viability, T/C [25]: 0.81%; viability, T/C [26]: 0.92%; viability, T/C [27]: 0.98%; viability, T/C [28]: 1.25%; viability, T/C [29]: 1.28%; viability, T/C [30]: 2.09%
